The values below are quoted from earlier work in PubChem BioAssay AID1259410 (Chemical Carcinogenesis Research Information System (CCRIS), 2018).

The subject of the data set is rodent tumor promotion studies, tumor incidence. Nature of the data set: CCRIS tumor promotion studies. Particulars: Route [Promoter]: ORAL.

Take `O=C(O)c1cc(=O)[nH]c(=O)[nH]1`: the outcome runs as follows: (Carcinogen: 1,2-DIMETHYLHYDRAZINE DIHYDROCHLORIDE, 306-37-6, Doses [Carcinogen]: 100 MG/KG ONCE 18 HR AFTER 2/3 PARTIAL HEPATECTOMY, Doses [Promoter]: 0, 1% IN DIET FOR 10 WK BEGINNING 1 WK POST CARCINOGEN DOSE (STUDY DURATION: 54 WK), Route [Carcinogen]: INTRAPERITONEAL, Species: RAT, Strain/Sex: F344/MALE) “liver: hepatocellular carcinoma”; (Carcinogen: 1,2-DIMETHYLHYDRAZINE DIHYDROCHLORIDE, 306-37-6, Doses [Carcinogen]: 100 MG/KG ONCE 18 HR AFTER 2/3 PARTIAL HEPATECTOMY, Doses [Promoter]: 0, 1% IN DIET FOR 20 WK BEGINNING 1 WK POST CARCINOGEN DOSE (STUDY DURATION: 54 WK), Route [Carcinogen]: INTRAPERITONEAL, Species: RAT, Strain/Sex: F344/MALE) “liver: hepatocellular carcinoma”; (Carcinogen: 1,2-DIMETHYLHYDRAZINE DIHYDROCHLORIDE, 306-37-6, Doses [Carcinogen]: 100 MG/KG ONCE 18 HR AFTER 2/3 PARTIAL HEPATECTOMY, Doses [Promoter]: 0, 1% IN DIET FOR 29 WK BEGINNING 1 WK POST CARCINOGEN DOSE (STUDY DURATION: 54 WK), Route [Carcinogen]: INTRAPERITONEAL, Species: RAT, Strain/Sex: F344/MALE) “liver: hepatocellular carcinoma”; (Carcinogen: 1,2-DIMETHYLHYDRAZINE DIHYDROCHLORIDE, 306-37-6, Doses [Carcinogen]: 100 MG/KG ONCE 18 HR AFTER 2/3 PARTIAL HEPATECTOMY, Doses [Promoter]: 0, 1% IN DIET FOR 40 WK BEGINNING 1 WK POST CARCINOGEN DOSE (STUDY DURATION: 54 WK), Route [Carcinogen]: INTRAPERITONEAL, Species: RAT, Strain/Sex: F344/MALE) “liver: hepatocellular carcinoma”; (Carcinogen: 1,2-DIMETHYLHYDRAZINE DIHYDROCHLORIDE, Doses [Carcinogen]: 100 MG/KG ONCE, 18 HR AFTER PARTIAL HEPATECTOMY, Doses [Promoter]: 1% IN DIET FOR 10 OR 13 MO BEGINNING 1 WK AFTER INITIATION, Route [Carcinogen]: INTRAPERITONEAL, Species: RAT, Strain/Sex: F344/MALE) “liver: hepatocellular carcinoma”; (Carcinogen: 1,2-DIMETHYLHYDRAZINE, 540-73-8, Doses [Carcinogen]: 100 MG/KG ONCE 18 HR AFTER TWO-THIRDS PARTIAL HEPATECTOMY, Doses [Promoter]: 0, 1% IN DIET BEGINNING 1 WK POST CARCINOGEN DOSE (STUDY DURATION: 54 WK), Route [Carcinogen]: INTRAPERITONEAL, Species: RAT, Strain/Sex: F344/MALE) “liver: hepatocellular carcinoma”. In addition, the outcome is reported as “liver: carcinoma” (Carcinogen: DIETHYLNITROSAMINE, 55-18-5, Doses [Carcinogen]: 200 MG/KG BW ONCE, Doses [Promoter]: 0, 1% IN DIET FOR 4 WK BEGINNING 1 WK POST CARCINOGEN DOSE, PARTIAL HEPATECTOMY PERFORMED AT END OF SECOND WK (STUDY DUR, Route [Carcinogen]: INTRAPERITONEAL, Species: RAT, Strain/Sex: F344/MALE); “liver: hepatocellular carcinoma” (Carcinogen: DIETHYLNITROSAMINE, 55-18-5, Doses [Carcinogen]: 200 MG/KG ONCE, Doses [Promoter]: 0, 1% IN DIET BEGINNING 1 WK POST CARCINOGEN DOSE (STUDY DURATION: 60 WK), Route [Carcinogen]: INTRAPERITONEAL, Species: RAT, Strain/Sex: F344/MALE); “liver: hepatocellular carcinoma” (Carcinogen: DIETHYLNITROSAMINE, 55-18-5, Doses [Carcinogen]: 200 MG/KG ONCE, Doses [Promoter]: 0, 1% IN DIET BEGINNING 5 WK POST CARCINOGEN DOSE (STUDY DURATION: 60 WK), Route [Carcinogen]: INTRAPERITONEAL, Species: RAT, Strain/Sex: F344/MALE); “pancreas: papillary adenocarcinoma, carcinoma in situ” (Carcinogen: N-NITROSO(2-HYDROXYPROPYL)(2-OXOPROPYL)AMINE, 61499-28-3, Doses [Carcinogen]: 170 MG/KG (TOTAL DOSE) ADMINISTERED CONTINUOUSLY OVER 9 D VIA OSMOTIC PUMP, Doses [Promoter]: 0, 1% IN DIET BEGINNING 2 WK POST CARCINOGEN TREATMENT AND CONTINUING FOR DURATION OF STUDY (STUDY DURATION: 29 WK), Route [Carcinogen]: SUBCUTANEOUS IMPLANT, Species: HAMSTER, Strain/Sex: SYRIAN/FEMALE); “pancreas: carcinoma in situ, adenocarcinoma” (Carcinogen: N-NITROSO(2-HYDROXYPROPYL)(2-OXOPROPYL)AMINE, 61499-28-3, Doses [Carcinogen]: 170 MG/KG (TOTAL DOSE) INFUSED CONTINUOUSLY FOR 9 D, Doses [Promoter]: 0, 1% IN DIET FOR DURATION OF STUDY BEGINNING 2 WK POST CARCINOGEN TREATMENT (STUDY DURATION: 28 WK), Route [Carcinogen]: SUBCUTANEOUS, Species: HAMSTER, Strain/Sex: SYRIAN/FEMALE); “kidney: tumor; lung: adenoma” (Carcinogen: N-NITROSO(2-HYDROXYPROPYL)(2-OXOPROPYL)AMINE, 61499-28-3, Doses [Carcinogen]: 400 MG/KG (TOTAL DOSE) ADMINISTERED CONTINUOUSLY BY OSMOTIC PUMP FOR 14 D, Doses [Promoter]: 0, 1% IN DIET FOR 15 WK BEGINNING 2 WK PRIOR TO CARCINOGEN TREATMENT (STUDY DURATION: 29 WK), Route [Carcinogen]: SUBCUTANEOUS, Species: RAT, Strain/Sex: SPRAGUE-DAWLEY/MALE). In addition, the outcome (Carcinogen: N-NITROSO(2-HYDROXYPROPYL)(2-OXOPROPYL)AMINE, 61499-28-3, Doses [Carcinogen]: 400 MG/KG VIA OSMOTIC PUMP CONTINUOUSLY FOR 14 D, Doses [Promoter]: 0, 1% IN DIET 2 WK PRIOR TO AND 13 WK POST CARCINOGEN TREATMENT (STUDY DURATION: 27 WK), Route [Carcinogen]: SUBCUTANEOUS, Species: RAT, Strain/Sex: CD-1/MALE) is “kidney: tumor; lung: adenoma”.
Regarding `O=c1cc[nH]c(=O)[nH]1`, the outcome was “kidney: adenocarcinoma” (Carcinogen: N-ETHYL-N-HYDROXYETHYLNITROSAMINE, 13147-25-6, Doses [Carcinogen]: 0.05% IN DRINKING WATER FOR 3 WK, Doses [Promoter]: 0, 3% IN DIET FOR 3 WK ADMINISTERED SIMULTANEOUSLY WITH CARCINOGEN (STUDY DURATION: 52 WK), Route [Carcinogen]: ORAL, Species: RAT, Strain/Sex: F344/FEMALE) and “urinary bladder: carcinoma” (Carcinogen: N-METHYL-N-NITROSOUREA, 684-93-5, Doses [Carcinogen]: 20 MG/KG 2/WK FOR 4 WK, Doses [Promoter]: 0, 3% IN DIET FOR 20 WK BEGINNING POST LAST CARCINOGEN DOSE (STUDY DURATION: 24 WK), Route [Carcinogen]: INTRAPERITONEAL, Species: RAT, Strain/Sex: F344/MALE).
For `Cc1ccc2cc3c(ccc4ccccc43)c3c2c1CC3`, the outcome (Carcinogen: N-BIS(2-HYDROXYPROPYL)NITROSAMINE, 53609-64-6, N-ETHYL-N-HYDROXYETHYLNITROSAMINE, 13147-25-6, 3,2'-DIMETHYL-4-AMINOB, Carcinogen: N-BIS(2-HYDROXYPROPYL)NITROSAMINE, 53609-64-6, N-ETHYL-N-HYDROXYETHYLNITROSAMINE, 13147-25-6, 3,2'-DIMETHYL-4-AMINOB, Doses [Carcinogen]: 1000 MG/KG IP IN SALINE ON DAY 1 AND 4, 1500 MG/KG IG IN DISTILLED WATER ON DAY 8 AND 11, 75 MG/KG SC IN CORN OIL ON D, Doses [Carcinogen]: 1000 MG/KG IP IN SALINE ON DAY 1 AND 4, 1500 MG/KG IG IN DISTILLED WATER ON DAY 8 AND 11, 75 MG/KG SC IN CORN OIL ON D, Doses [Promoter]: 0, 0.02% IN DIET BEGINNING 1 WK POST LAST CARCINOGEN DOSE AND CONTINUING FOR 12 WK (STUDY DURATION: 16 WK), Route [Carcinogen]: INTRAPERITONEAL, GAVAGE, SUBCUTANEOUS, Route [Carcinogen]: INTRAPERITONEAL, GAVAGE, SUBCUTANEOUS, Species: RAT, Strain/Sex: F344/MALE) is “lung: adenoma or adenocarcinoma”.
